The values below come from article PMC5094555, “Human Mitochondrial Cytochrome b Variants Studied in Yeast: Not All Are Silent Polymorphisms” (Human Mutation, 2016).

Experiment [1] has as its target yeast complex III, cytochrome b p.Ser172Gly (Saccharomyces cerevisiae, UniProt P00163, S172G). Type of experiment: biochemical. The settings on record: this work.
Protocol: Yeast mitochondria were prepared as in Lemaire and Dujardin (2008). Briefly, yeast grown in YPGal medium were harvested at mid‐log phase. Protoplasts were obtained by enzymatic digestion of the cell wall using zymolyase in an osmotic protection buffer. Mitochondria were then prepared by differential centrifugation following osmotic shock of the protoplasts. Mitochondrial samples were aliquoted and stored at −80°C. Concentration of complex III in the mitochondrial samples was determined from dithionite‐reduced optical spectra, using ε = 28.5 mM^−1/cm at 562 − 575 nm. Decylubiquinol‐cytochrome c reductase activities were determined at room temperature by measuring the reduction of cytochrome c (final concentration of 20 μM) at 550 nm versus 540 nm over 1‐min time course in 10 mM potassium phosphate pH 7, 0.01% (w/v) lauryl‐maltoside and 1 mM KCN. Mitochondria were added to obtain a final concentration of 5–30 nM of complex III. […] Initial rates were measured as a function of the decylubiquinol concentration. […]
Cytochrome c reduction activity was measured as described above in the presence of increasing concentrations of inhibitors (six to 10 different concentrations). […] The midpoint inhibition concentrations (IC50) were determined from the titrations and the IC50 values were normalized by the concentration of complex III.
The test system of experiment [2] is yeast AD1-9 strains (wild type and cytochrome b mutants). Kind of experiment: Respiratory growth assay with increasing concentration of drug. The format is cell-based, Saccharomyces cerevisiae. On the procedure:
Diploids were used in the experiments, except for monitoring the sensitivity of respiratory growth to atovaquone, where the AD1‐9 series was used.
Yeast strains were grown in 5 ml of YPEth medium with increasing concentration of drug. Cultures were inoculated from 1‐day‐old cultures on YPG to an OD600 nm of 0.2 and incubated at 28°C with vigorous shaking to maintain good aeration. Cell densities measured as OD600 nm were estimated 2 or 3 days after inoculation.

Experiment [3] addresses T1, yeast complex III (wild type) (Saccharomyces cerevisiae, UniProt P00163).
T1 construct: Mitochondria were added to obtain a final concentration of 5–30 nM of complex III; endogenous in cells; host or cells: mitochondria prepared from S. cerevisiae grown in YPGal (diploid strains)
More on the design: method as in Vallières et al., 2013. The settings on record: atovaquone; per nM complex III; yeast enzyme; ref Vallières et al., 2013; read-out: IC50 (midpoint inhibition concentration); cited from earlier work.

In a further experiment the target is T2, bovine complex III (Bos taurus, UniProt P00157).
T2 construct: catalytic activity of bovine and yeast complex III, using purified mitochondria; from tissue
Also on record: method as in Vallières et al., 2013. The settings on record: atovaquone; per nM complex III; bovine enzyme; ref Vallières et al., 2013; read-out: IC50 (midpoint inhibition concentration); cited from earlier work.

The subject of experiment [4] is malaria parasite complex III. Also on record: method as in Biagini et al., 2008. The settings on record: atovaquone; malaria parasite enzyme; ref Biagini et al., 2008; cited from earlier work.
Experiment [5] deals with yeast complex III, cytochrome b CysCysVal 133-135 ValLeuPro. More on the design: method as in Fisher and Meunier 2005. The settings on record: ref Fisher and Meunier 2005; cited from earlier work.
Experiment [6] has as its system yeast complex III, cytochrome b p.His141Tyr. Also on record: method as in Vallières et al. 2013. The settings on record: ref Vallières et al. 2013; cited from earlier work.
In experiment [7] the test system is yeast complex III, cytochrome b p.His141Phe. More on the design: method as in Fisher and Meunier 2005. The settings on record: ref Fisher and Meunier 2005; cited from earlier work.

In the case of `O=C1C(O)=C([C@H]2CC[C@H](c3ccc(Cl)cc3)CC2)C(=O)c2ccccc21` [atovaquone], the “atovaquone sensitivity (IC50 mutant/IC50 control)” value in experiment [1] is listed as 1.1; in experiment [5] it was 3.5; in experiment [6], 0.5; in experiment [7], 0.4. For the same compound, the “Sensitivity of respiratory growth to atovaquone” value is “inhibited at slightly higher doses of atovaquone than the control strain” in experiment [2] (strain HS-p.Ser172Asn (humanised Qo site), versus control strain (Fig. 3C)); “more sensitive” in experiment [2] (strain HS-p.Ser172Asn versus HS-p.Ser172Asp (Fig. 3C)); “inhibited at slightly higher doses of atovaquone than the control strain” in experiment [2] (strain HS-p.Ser172Asp (humanised Qo site), versus control strain (Fig. 3C)); “increased sensitivity compared with p.Ser172Asp” in experiment [2] (strain p.Ser172Asn, compared with p.Ser172Asp and p.Leu150Phe (Fig. 3B)); “increased sensitivity compared with p.Ser172Asp” in experiment [2] (strain p.Ser172Gly, compared with p.Ser172Asp and p.Leu150Phe (Fig. 3B)); “increased sensitivity compared with p.Ser172Asp” in experiment [2] (wt strain, compared with p.Ser172Asp and p.Leu150Phe (Fig. 3B)). For the same compound, the IC50 was 4 nM in experiment [3], 75 nM at bovine complex III and ~3 nM in experiment [4].
